Results: patent US20080292584A1 (priority 2005, published 2008)

Tests used:
[1] = system: CYP2B6; assay: Induction/inhibition of CYP2B6 activity in cryopreserved human hepatocytes (S-mephenytoin); settings: 1 mM Phenobarbital; each hepatocyte donor
Text: (§1) Hepatocytes from three human donors were obtained from a cryopreserved hepatocyte bank (In Vitro Technologies, Inc., USA). After thawing, viable hepatocytes were transferred to collagen-coated 48-well plates for attachment in plating medium (DMEM stock (Dulbecco's modified Eagle's medium, supplemented with bovine serum albumin, fructose, N-(2-hydroxyethyl)piperazine-N′-(2-ethanesulfonate) (HEPES), and sodium bicarbonate), supplemented with antibiotics, bovine serum, hydrocortisone, insulin and minimum essential medium (MEM) nonessential amino acids). After attachment to the collagen matrix, plating medium was replaced with sandwich medium (plating medium supplemented with VITROGEN) and incubated until use.
(§2) The supplemented KHB was replaced with 150 μL supplemented KHB containing the appropriate isoform-selective substrate and incubated for 4 hrs prior to termination by adding 150 μL ice-cold methanol, except for the CYP2C8 incubations which were terminated by adding 150 μL acetonitrile.
(§3) All substrates were dissolved in acetonitrile.
(§4) Replicate trials and controls were performed. […] Additionally, reference control samples were included to evaluate inducibility of CYP2B6, CYP2C9, and CYP2C19 in the test system.
(§5) Mean specific activity values with associated p-values≦0.05 were deemed to be statistically significant.

[2] = target: CYP2E1 (Homo sapiens, UniProt P05181); assay: Chemical inhibition of metaxalone turnover in human liver microsomes, CYP2E1 inhibitor clomethiazole; settings: both, human, microsomes, pH 7.4, Inhibition of metaxalone disappearance (% inhibition of turnover)
Sequence of CYP2E1 (P05181 whole entry): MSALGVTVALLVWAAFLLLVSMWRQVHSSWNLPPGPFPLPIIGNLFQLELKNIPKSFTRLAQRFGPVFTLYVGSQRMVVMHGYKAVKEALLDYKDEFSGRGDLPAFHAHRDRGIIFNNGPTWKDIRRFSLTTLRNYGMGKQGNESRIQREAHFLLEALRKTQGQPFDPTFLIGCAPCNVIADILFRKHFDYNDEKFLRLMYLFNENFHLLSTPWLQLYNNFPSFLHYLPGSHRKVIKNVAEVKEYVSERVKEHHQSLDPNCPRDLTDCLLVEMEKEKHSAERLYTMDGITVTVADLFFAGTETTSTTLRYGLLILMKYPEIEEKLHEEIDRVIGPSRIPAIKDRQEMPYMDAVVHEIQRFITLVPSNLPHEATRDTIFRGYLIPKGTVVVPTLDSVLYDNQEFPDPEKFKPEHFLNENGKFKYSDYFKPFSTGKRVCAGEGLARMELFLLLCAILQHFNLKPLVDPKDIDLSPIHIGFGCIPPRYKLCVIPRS

[3] = target: T1, CYP1A2 (Homo sapiens, UniProt P05177); assay: Chemical inhibition of metaxalone turnover in human liver microsomes, CYP1A2 selective inhibitor furafylline; settings: both, pooled human liver microsomes
T1 sequence (P05177 1-516): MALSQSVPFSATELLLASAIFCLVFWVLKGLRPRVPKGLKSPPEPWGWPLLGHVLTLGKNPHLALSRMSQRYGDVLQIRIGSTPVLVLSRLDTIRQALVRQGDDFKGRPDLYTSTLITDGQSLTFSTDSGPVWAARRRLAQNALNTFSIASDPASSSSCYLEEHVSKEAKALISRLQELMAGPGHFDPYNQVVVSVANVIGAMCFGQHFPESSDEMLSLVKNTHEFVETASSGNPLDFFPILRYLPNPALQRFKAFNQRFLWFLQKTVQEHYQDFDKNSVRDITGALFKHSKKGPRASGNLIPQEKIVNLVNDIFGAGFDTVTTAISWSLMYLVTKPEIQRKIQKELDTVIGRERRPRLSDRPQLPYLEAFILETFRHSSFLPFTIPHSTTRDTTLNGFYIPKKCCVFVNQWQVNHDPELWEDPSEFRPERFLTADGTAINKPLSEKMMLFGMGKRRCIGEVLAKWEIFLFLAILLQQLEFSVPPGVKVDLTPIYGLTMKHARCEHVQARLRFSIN

[4] = target: CYP3A4 (Homo sapiens, UniProt P08684); assay: in vitro; settings: both, pooled human liver microsomes
Sequence of CYP3A4 (P08684 whole entry): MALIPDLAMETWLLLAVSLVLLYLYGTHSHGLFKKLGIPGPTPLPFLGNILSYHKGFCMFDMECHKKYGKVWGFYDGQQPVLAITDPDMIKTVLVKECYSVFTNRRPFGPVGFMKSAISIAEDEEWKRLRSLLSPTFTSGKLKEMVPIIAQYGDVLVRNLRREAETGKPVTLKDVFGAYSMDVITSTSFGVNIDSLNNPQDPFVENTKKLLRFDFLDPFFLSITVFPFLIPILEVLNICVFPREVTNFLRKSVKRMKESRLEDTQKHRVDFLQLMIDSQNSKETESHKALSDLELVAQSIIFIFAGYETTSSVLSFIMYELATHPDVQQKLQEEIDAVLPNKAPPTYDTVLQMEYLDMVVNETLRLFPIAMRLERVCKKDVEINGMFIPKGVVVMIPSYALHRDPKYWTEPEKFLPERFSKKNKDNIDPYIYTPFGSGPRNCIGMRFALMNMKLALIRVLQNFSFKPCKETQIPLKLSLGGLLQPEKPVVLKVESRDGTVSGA

[5] = system: CYP1A2; assay: Induction/inhibition of CYP1A2 activity in cryopreserved human hepatocytes after 48 h exposure (phenacetin); settings: human, 48 h, 50 μM
Text: as §1, §2, §3, §4, §5

[6] = system: CYP2A6; assay: Chemical inhibition of metaxalone turnover in human liver microsomes, CYP2A6 inhibitor pilocarpine; settings: both, human, microsomes, pH 7.4, Inhibition of metaxalone disappearance (% inhibition of turnover)
[7] = target: T2, CYP2C8 (Homo sapiens, UniProt P10632); assay: Chemical inhibition of metaxalone turnover in human liver microsomes, CYP2C8 inhibitor quercetin; settings: both, human, pooled human liver microsomes
T2 sequence (P10632 1-490): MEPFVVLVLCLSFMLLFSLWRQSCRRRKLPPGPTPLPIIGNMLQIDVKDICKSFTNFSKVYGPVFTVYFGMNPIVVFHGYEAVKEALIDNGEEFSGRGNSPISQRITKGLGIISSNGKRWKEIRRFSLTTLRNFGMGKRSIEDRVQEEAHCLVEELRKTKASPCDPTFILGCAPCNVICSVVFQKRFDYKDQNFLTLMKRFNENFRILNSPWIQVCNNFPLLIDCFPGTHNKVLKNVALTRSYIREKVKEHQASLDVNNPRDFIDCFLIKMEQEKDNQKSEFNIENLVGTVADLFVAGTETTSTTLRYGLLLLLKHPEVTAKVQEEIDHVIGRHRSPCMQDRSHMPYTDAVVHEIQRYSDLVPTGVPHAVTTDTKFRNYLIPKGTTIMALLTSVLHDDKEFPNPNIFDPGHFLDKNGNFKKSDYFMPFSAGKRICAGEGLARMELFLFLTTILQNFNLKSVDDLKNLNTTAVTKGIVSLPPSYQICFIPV

[8] = target: CYP2C9 (Homo sapiens, UniProt P11712); assay: in vitro; settings: both, microsomes, pH 7.4, Inhibition of metaxalone disappearance (% inhibition of turnover)
Sequence of CYP2C9 (P11712 whole entry): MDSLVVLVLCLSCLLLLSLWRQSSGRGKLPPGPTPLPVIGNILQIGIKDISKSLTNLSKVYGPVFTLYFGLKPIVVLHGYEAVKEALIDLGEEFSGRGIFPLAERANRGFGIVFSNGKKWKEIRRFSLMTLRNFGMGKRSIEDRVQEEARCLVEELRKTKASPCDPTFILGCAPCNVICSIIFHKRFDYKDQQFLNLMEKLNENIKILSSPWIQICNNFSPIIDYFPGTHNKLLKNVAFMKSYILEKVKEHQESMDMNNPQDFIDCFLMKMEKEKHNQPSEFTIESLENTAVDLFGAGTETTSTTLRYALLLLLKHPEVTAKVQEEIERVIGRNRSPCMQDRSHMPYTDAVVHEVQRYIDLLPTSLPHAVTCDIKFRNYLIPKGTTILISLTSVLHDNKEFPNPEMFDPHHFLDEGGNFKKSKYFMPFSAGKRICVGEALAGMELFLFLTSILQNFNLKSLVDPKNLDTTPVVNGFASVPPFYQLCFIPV

[9] = system: CYP2B6; assay: Chemical inhibition of metaxalone turnover in human liver microsomes, CYP2B6 inhibitor thio-TEPA; settings: both, human, microsomes, pH 7.4, Inhibition of metaxalone disappearance (% inhibition of turnover)
[10] = pH 7.4, probe metaxalone 0.75 μM (disappearance)
[11] = pH 7.4, probe metaxalone 7.5 μM (disappearance)

CCC1(c2ccccc2)C(=O)NC(=O)NC1=O [Phenobarbital]
induction (reference control) [1]: statistically significant amount of induction

Cc1ncsc1CCCl [clomethiazole]
inhibition at 60 min ([2]; 0.75 μM metaxalone): 113 ± 21%
inhibition at 60 min ([2]; 7.5 μM metaxalone): 98.6 ± 4.9%

Cc1nc2c([nH]1)c(=O)n(C)c(=O)n2Cc1ccco1 [furafylline]
inhibition at 60 min [3, 10]: 111 ± 29%
inhibition at 60 min [3, 11]: 80.6 ± 2.4%

CC(=O)N1CCN(c2ccc(OCC3COC(Cn4ccnc4)(c4ccc(Cl)cc4Cl)O3)cc2)CC1 (stereo not shown) [ketoconazole]
inhibition at 60 min [4, 10]: 126 ± 5%
inhibition at 60 min [4, 11]: 130 ± 18%

COc1ccc2[nH]c([S+]([O-])Cc3ncc(C)c(OC)c3C)nc2c1 (stereo not shown) [omeprazole]
induction [5]: ≥ 200%

CC[C@@H]1C(=O)OC[C@@H]1Cc1cncn1C [pilocarpine]
inhibition at 60 min ([6]; 0.75 μM metaxalone): 46.2 ± 5.7%
inhibition at 60 min ([6]; 7.5 μM metaxalone): 50.8 ± 6.9%

O=c1c(O)c(-c2ccc(O)c(O)c2)oc2cc(O)cc(O)c12 [quercetin]
inhibition at 60 min [7, 10]: 77.2 ± 13.6%
inhibition at 60 min [7, 11]: 84.7 ± 18.3%

Nc1ccc(S(=O)(=O)Nc2ccnn2-c2ccccc2)cc1 [sulfaphenazole]
inhibition at 60 min ([8]; 0.75 μM metaxalone): 81.4 ± 0.3%
inhibition at 60 min ([8]; 7.5 μM metaxalone): 52.8 ± 2.9%

S=P(N1CC1)(N1CC1)N1CC1 [thio-TEPA]
inhibition at 60 min ([9]; 0.75 μM metaxalone): 58.3 ± 2.4%
inhibition at 60 min ([9]; 7.5 μM metaxalone): 43.3 ± 13.8%
